Consider 6 compounds from patent publication US20090247579A1, “2-[3H-THIAZOL-2-YLIDINEMETHYL]PYRIDINES AND RELATED COMPOUNDS AND THEIR USE” (CANCER RESEARCH TECHNOLOGY LIMITED, priority 2006, published 2009).

One assay relates to A2780/cp70. The assay is described as follows: Modified MTT assay, A2780/cp70 (cisplatin resistant, MMR deficient). Type of assay: cell-based, human. The settings on record: 24 hour drug exposure; for IC50: Homo sapiens, A2780/CP70, MTT; for A2780/cp70 RF (Resistance Factor): fold difference in resistance from parental A2780. How it is done: (§1) Relative drug sensitivities (Resistance Factor) and IC50 values were determined by a modified MTT assay (see, e.g., Mosmann, 1983; Plumb et al., 1989), as described below: • (1) Trypsinise a sub-confluent monolayer culture and collect cells in growth medium containing serum. Centrifuge the suspension (200 g, 5 minutes) to pellet cells, re-suspend in growth medium, and count cells. Dilute cells to a density of 5×10^3 cells/mL allowing 60 mL of cell suspension for 3 microtitre plates. Transfer cell suspension to a 10 cm petri dish, and with a multichannel pipette add 200 μL to each well of the central 10 columns of a flat bottomed 96-well plate (80 wells per plate) starting with column 2 and ending with column 11. Add 200 μL of growth medium to the 8 wells in columns 1 and 12. Put the plates in a plastic box and incubate in a humidified atmosphere at 37° C. for 2-3 days so that cells are in the exponential phase of growth for drug addition. • (2) Prepare a serial 5-fold dilution of the cytotoxic drug in growth medium to give 8 concentrations. Pipette 6 mL of growth medium in to each of 7 universal containers (30 mL). Prepare 10 mL of the highest concentration of the drug and transfer 1.5 mL of this solution to the first universal container. Mix and then transfer 1.5 mL to the next universal container. Continue until the seventh universal container is reached. The concentrations should be chosen so that the highest concentration kills most of the cells and the lowest kills none of the cells. Normally, three plates are used for each drug to give triplicate determinations within one experiment. • (3) The medium is removed from all the wells in columns 2 to 11. This can be achieved with a hypodermic needle attached to a suction line. Cells in the 8 wells in columns 2 and 11 are fed with 200 μL of fresh growth medium. The drug solutions are transferred to 10 cm petri dishes and 200 μL added to all 8 wells of a column. For ease of analysis arrange the drug solutions in order so that the highest is in column 3 down to the lowest in column 10. Plates are returned to the plastic box and incubated for 24 hours. • (4) At the end of the drug exposure period, the medium is removed from all wells containing cells and the cells are fed with 200 μL of fresh medium. • (5) The plates are fed daily for two more days. • (6) The plates are fed with 200 μL of fresh medium and 50 μL of the MTT solution (5 mg/mL in PBS) is added to all wells in columns 1 to 11. Plates are wrapped in aluminium foil and incubated for 4 hours in a humidified atmosphere at 37° C. • (7) The medium and MTT are then removed from the wells and the purple MTT-formazan crystals dissolved by addition of 200 μL of DMSO to all wells in columns 1 to 11. Glycine buffer is added (25 μL per well) to all wells containing DMSO. • (8) Absorbance is recorded at 570 nm with the wells in column 1, which contained medium and MTT but no cells used as a blank. • (9) A graph is plotted of absorbance (y-axis) against drug concentration (x-axis). The mean absorbance reading from the wells in columns 2 and 11 is used as the control absorbance and the IC50 concentration is determined as the drug concentration required to reduce the absorbance to half that of the control. IC10 or IC90 values can be determined in the same manner.
(§2) A2780/cp70 and A2780/mcp1 have lost expression of MLH1, have lost MMR activity, and have microsatellite instability compared to A2780. The CpG island at the MLH1 gene is methylated in A2780/cp70 and A2780/mcp1, but not A2780.
(§3) IC50 values (μM) for A2780, A2780/cp70, and A2780/mcp1 and Resistance Factors (RF) (the fold difference in resistance from parental A2780) were determined based on the MTT assay described above for several compounds of the present invention (including, e.g., MMR201).
For orientation: Tetrazolium dyes change colour on reduction, which living cells bring about.

Another assay deals with A2780/mcp1. The experiment in a line: Modified MTT assay, A2780/mcp1 (cisplatin resistant, MMR deficient). Type of assay: cell-based, human. The settings on record: 24 hour drug exposure; for IC50: Homo sapiens, A2780/mcp1, MTT; for A2780/mcp1 RF (Resistance Factor): fold difference in resistance from parental A2780. How it is done: as §1, §2, §3
In assay [1] the test system is A2 (MLH1−ve, MMR deficient). The experiment in a line: Modified MTT assay, A2 line (A2780/cp70 + chromosome 3, MLH1 -ve). Type of assay: cell-based, human. The settings on record: for IC50: Homo sapiens, A2780/CP70, A2 line. How it is done:
as §1
(§4) A1, E1, and A2 are derived by transfer of human chromosome 3 into A2780/cp70. MLH1 is located on chromosome 3.
(§5) IC50 values (μM) for A1 (MLH1+ve, MMR proficient) or E1 (MLH1+ve, MMR proficient) and A2 (MLH1−ve, MMR deficient) lines and Resistance Factors (RF) (the fold difference in resistance between the A2 line, MMR deficient, and the A1 line, MMR proficient) were determined based on the MTT assay described above for several compounds of the present invention (including, e.g., MMR201). Compounds showing increased activity against the MLH1 deficient A2 line compared to the MLH1 proficient A1 or E1 line have RF values less than 1.

A further assay relates to A2780. The experiment in a line: Modified MTT assay, A2780 (parental, MMR proficient). Type of assay: cell-based, human. The settings on record: Homo sapiens, A2780, 24 hour drug exposure. As to the method: as §1, §2, §3
The test system of assay [2] is A1 (MLH1+ve, MMR proficient). The experiment in a line: Modified MTT assay, A1 line (A2780/cp70 + chromosome 3, MLH1 +ve). Type of assay: cell-based, human. The settings on record: Homo sapiens, A2780/CP70, read-out: A1 or E1 MLH1 +ve MMR proficient IC50. As to the method:
as §1, §4, §5

Assay [3] relates to E1 (MLH1+ve, MMR proficient). The experiment in a line: Modified MTT assay, E1 line (A2780/cp70 + chromosome 3, MLH1 +ve). Type of assay: cell-based. The settings on record: Homo sapiens, read-out: A1 or E1 MLH1 +ve MMR proficient IC50. As to the method:
Relative drug sensitivities (Resistance Factor) and IC50 values were determined by a modified MTT assay (see, e.g., Mosmann, 1983; Plumb et al., 1989), as described below: • (1) Trypsinise a sub-confluent monolayer culture and collect cells in growth medium containing serum. Centrifuge the suspension (200 g, 5 minutes) to pellet cells, re-suspend in growth medium, and count cells. Dilute cells to a density of 5×10^3 cells/mL allowing 60 mL of cell suspension for 3 microtitre plates. Transfer cell suspension to a 10 cm petri dish, and with a multichannel pipette add 200 μL to each well of the central 10 columns of a flat bottomed 96-well plate (80 wells per plate) starting with column 2 and ending with column 11. Add 200 μL of growth medium to the 8 wells in columns 1 and 12. […] Glycine buffer is added (25 μL per well) to all wells containing DMSO. • (8) Absorbance is recorded at 570 nm with the wells in column 1, which contained medium and MTT but no cells used as a blank. • (9) A graph is plotted of absorbance (y-axis) against drug concentration (x-axis). The mean absorbance reading from the wells in columns 2 and 11 is used as the control absorbance and the IC50 concentration is determined as the drug concentration required to reduce the absorbance to half that of the control. IC10 or IC90 values can be determined in the same manner. […]

The mark [4] stands for this setting: fold difference in resistance between A2 (MMR deficient) and A1 (MMR proficient).

As usually defined, the IC50 is the point on the concentration scale where inhibition reaches its midpoint. In the case of `CC[n+]1c(/C=C2\Sc3oc4ccccc4c3N2C)ccc2ccccc21.[I-]` [MMR211], the concentration for half-maximal inhibition (IC50) is 40 ± 4 nM in the assay on A2780/cp70; 38 ± 6 nM with A2780/mcp1; 27 ± 3 nM in assay [1]; 69 ± 7 nM in the assay on A2780; 144 ± 9 nM in assay [2]. Also, in the assay on A2780/cp70, the “A2780/cp70 RF (Resistance Factor)” value was found to be 0.58. Also, the “A2780/mcp1 RF (Resistance Factor)” value in the assay with A2780/mcp1 stood at 0.55. Besides, in assay [1] (setting [4]), the “RF (Resistance Factor)” value turned out to be 0.19.

As for `CC[n+]1c(/C=C2\SC=CN2C)ccc2ccccc21.[I-]` [MMR212], the IC50 in the assay with A2780/cp70 came out at 435 ± 22 nM; in the assay on A2780/mcp1 it was 481 ± 48 nM; in assay [1], 681 ± 76 nM; with A2780, 1670 ± 370 nM; in assay [2], 4100 ± 450 nM. The “A2780/cp70 RF (Resistance Factor)” value with A2780/cp70 was 0.26. Moreover, the “A2780/mcp1 RF (Resistance Factor)” value in the assay with A2780/mcp1 amounted to 0.29. In assay [1] (setting [4]), the “RF (Resistance Factor)” value amounted to 0.17.

Regarding `CC[n+]1c(/C=C2\SC=C(C)N2C)ccc2ccccc21.[I-]` [MMR213], the IC50 in the assay with A2780/cp70 was determined as 325 ± 44 nM; in the assay on A2780/mcp1, 358 ± 103 nM; in assay [1], 530 ± 18 nM; with A2780, 1230 ± 51 nM; in assay [2], 2550 ± 180 nM. Moreover, in the assay with A2780/cp70, the “A2780/cp70 RF (Resistance Factor)” value is given as 0.26. In addition, the “A2780/mcp1 RF (Resistance Factor)” value in the assay on A2780/mcp1 was determined as 0.29. The “RF (Resistance Factor)” value in assay [1] (setting [4]) is given as 0.21.

For the compound `CC[n+]1ccccc1/C=C1\SC=CN1C.[I-]` [MMR302], the IC50 with A2780/cp70 was 7100 ± 370 nM; in the assay on A2780/mcp1, 12900 ± 1000 nM; in assay [1], 4150 ± 800 nM; in the assay with A2780, 13600 ± 1550 nM; in assay [2], 2830 ± 460 nM. Besides, the “A2780/cp70 RF (Resistance Factor)” value with A2780/cp70 was found to be 0.52. Further, the “A2780/mcp1 RF (Resistance Factor)” value in the assay on A2780/mcp1 was 0.95. In assay [1] (setting [4]), the “RF (Resistance Factor)” value is on record as 1.5.

For the compound `CC[n+]1ccccc1/C=C1\SC=C(C)N1C.[I-]` [MMR304], the half-maximal inhibitory concentration (IC50) was determined as 18000 ± 1300 nM with A2780/cp70; 35600 ± 1960 nM with A2780/mcp1; 16100 ± 2540 nM in assay [1]; 64500 ± 3910 nM in the assay with A2780; 54200 ± 10800 nM in assay [2]. Moreover, in the assay on A2780/cp70, the “A2780/cp70 RF (Resistance Factor)” value is 0.28. In the assay on A2780/mcp1, the “A2780/mcp1 RF (Resistance Factor)” value came out at 0.55. The “RF (Resistance Factor)” value in assay [1] (setting [4]) was determined as 0.30.

For the compound `CC[n+]1ccccc1/C=C1\Sc2oc3ccccc3c2N1C.[I-]` [MMR307], the IC50 stood at 932 ± 95 nM in the assay on A2780/cp70; 716 ± 41 nM in the assay on A2780/mcp1; 937 ± 66 nM in assay [3]; 648 ± 85 nM in assay [1]; 752 ± 73 nM in the assay on A2780. Besides, in the assay with A2780/cp70, the “A2780/cp70 RF (Resistance Factor)” value is on record as 1.24. In addition, in the assay on A2780/mcp1, the “A2780/mcp1 RF (Resistance Factor)” value was 0.95. Moreover, in assay [1] (A2 (MMR deficient) versus E1 (MMR proficient)), the “RF (Resistance Factor)” value is listed as 0.69.
